Reference: patent US20220041582A1, “ISOXAZOLINE COMPOUNDS FOR CONTROLLING INVERTEBRATE PESTS” (FMC Corporation, priority 2018, published 2022)
Read-outs that look alike come from different tables or passages of the source.

What was measured:
Assay type in all cases: in vivo
[1] = test system: green peach aphid (Myzus persicae (Sulzer)); experiment: Test E: control of green peach aphid through contact and/or systemic means; details: 144 h
Method: (§1) Formulation and Spray Methodology for Tests A-H
(§2) Test compounds were formulated using a solution containing 10% acetone, 90% water and 300 ppm Activator 90® non-ionic surfactant (Loveland Products, Loveland, Colo., USA). The formulated compounds were applied in 1 mL of liquid through an atomizer nozzle positioned 1.27 cm (0.5 inches) above the top of each test unit. Test compounds were sprayed at the rates indicated, and each test was replicated three times.
For evaluating control of green peach aphid (Myzus persicae (Sulzer)) through contact and/or systemic means, the test unit consisted of a small open container with a 12-15-day-old radish plant inside. This was pre-infested by placing on a leaf of the test plant 30-40 aphids on a piece of leaf excised from a culture plant (cut-leaf method). The aphids moved onto the test plant as the leaf piece desiccated. After pre-infestation, the soil of the test unit was covered with a layer of sand.
Test compounds were formulated and sprayed at 250, 50 and 10 ppm. After spraying of the formulated test compound, each test unit was allowed to dry for 1 hour and then a black, screened cap was placed on top. The test units were held for 6 days in a growth chamber at 19-21° C. and 50-70% relative humidity. Each test unit was then visually assessed for insect mortality.

[2] = test system: cotton melon aphid (Aphis gossypii (Glover)); experiment: Test F: control of cotton melon aphid through contact and/or systemic means; details: 144 h
Method: as §1, §2
[…] This was pre-infested with 30-40 insects on a piece of leaf according to the cut-leaf method, and the soil of the test unit was covered with a layer of sand.
Test compounds were formulated and sprayed at 250, 50 and 10 ppm. After spraying, the test units were maintained in a growth chamber for 6 days at 19° C. and 70% relative humidity. Each test unit was then visually assessed for insect mortality.

[3] = test system: sweetpotato whitefly (Bemisia tabaci (Gennadius)); experiment: Test G: control of sweetpotato whitefly through contact and/or systemic means; details: 312 h
Method: as §1, §2
For evaluating control of the sweetpotato whitefly (Bemisia tabaci (Gennadius)) through contact and/or systemic means, the test unit consisted of a small open container with a 12-14-day-old cotton plant inside. Prior to the spray application, both cotyledons were removed from the plant, leaving one true leaf for the assay. Adult whiteflies were allowed to lay eggs on the plant and then were removed from the test unit. Cotton plants infested with at least 15 eggs were submitted to the test for spraying.
Test compounds were formulated and sprayed at 250, 50 and 10 ppm. After spraying, the test units were allowed to dry for 1 hour. The cylinders were then removed, and the units were taken to a growth chamber and held for 13 days at 28° C. and 50-70% relative humidity. Each test unit was then visually assessed for insect mortality.

[4] = test system: potato leafhopper (Empoasca fabae (Harris)); experiment: Test D: control of potato leafhopper through contact and/or systemic means; details: 144 h
Method: as §1, §2
[…] White sand was added to the top of the soil, and one of the primary leaves was excised prior to application of the test compound.
Test compounds were formulated and sprayed at 250, 50 and 10 ppm. After spraying of the formulated test compound, the test units were allowed to dry for 1 hour before they were post-infested with 5 potato leafhoppers (18-to-21-day-old adults). A black, screened cap was placed on the top of the test unit, and the test units were held for 6 days in a growth chamber at 20° C. and 70% relative humidity. Each test unit was then visually assessed for insect mortality.

[5] = 50 ppm spray, 6 days, read-out: mortality
[6] = 10 ppm spray, 6 days, read-out: mortality

For `C[C@@H](NC(=O)c1ccc(C2=NOC(c3cc(Cl)c(F)c(Cl)c3)(C(F)(F)F)C2)c2ccncc12)C(=O)NCC(F)(F)F` (stereo partly shown) [Compound 56], the mortality at 50 ppm [1] was at least 80%, the mortality at 50 ppm [2] was at least 80% and the mortality at 50 ppm [3] was at least 50%.

Compound `CS(=O)(=O)CCNC(=O)c1ccc(C2=NOC(c3cccc(C(F)(F)F)c3)(C(F)(F)F)C2)c2ccncc12` (stereo not shown) [Compound 19] has a mortality at 50 ppm [2, 5] of at least 80% and a mortality at 50 ppm ([3]; 50 ppm spray, 13 days, read-out: mortality) of at least 50%.

In the case of `C[S+]([O-])CCNC(=O)c1ccc(C2=NOC(c3cccc(C(F)(F)F)c3)(C(F)(F)F)C2)c2ccncc12` (stereo not shown) [Compound 30], the mortality at 50 ppm [2, 5] is reported as at least 80%.

`O=C(NC1CC1)c1ccc(C2=NOC(c3cc(Cl)c(F)c(Cl)c3)(C(F)(F)F)C2)c2ccncc12` (stereo not shown) [Compound 23, N-cyclopropyl-5-[5-(3,5-dichloro-4-fluorophenyl)-4,5-dihydro-5-(trifluoromethyl)-3-isoxazolyl]-8-isoquinolinecarboxamide] was tested, and the mortality at 10 ppm [1] was at least 80%, the mortality at 50 ppm [1] was at least 80% and the mortality at 10 ppm [2] was at least 80%. It also gave a mortality at 50 ppm [2] of at least 80% and a mortality at 50 ppm [4] of at least 80%.

`CS(=O)(=O)N1CC(NC(=O)c2ccc(C3=NOC(c4cc(Cl)c(F)c(Cl)c4)(C(F)(F)F)C3)c3ccncc23)C1` (stereo not shown) [Compound 21, 5-[5-(3,5-dichloro-4-fluorophenyl)-4,5-dihydro-5-(trifluoromethyl)-3-isoxazolyl]-N-[1-(methylsulfonyl)-3-azetidinyl]-8-isoquinolinecarboxamide] was tested, and the mortality at 50 ppm [2] was at least 80%, the mortality at 50 ppm [3] was at least 50% and the mortality at 50 ppm [4] was at least 80%.

`C[C@H](CSCC(F)(F)F)NC(=O)c1ccc(C2=NOC(c3cc(Cl)c(F)c(Cl)c3)(C(F)(F)F)C2)c2ccncc12` (stereo partly shown) [Compound 62] gave a mortality at 50 ppm [2] of at least 80%, a mortality at 50 ppm [3] of at least 50% and a mortality at 50 ppm [4] of at least 80%.

Work on `C[S+]([O-])CCNC(=O)c1ccc(C2=NOC(c3cc(Cl)c(F)c(Cl)c3)(C(F)(F)F)C2)c2ccncc12` (stereo not shown) [Compound 11] yielded a mortality at 50 ppm [1] of at least 80%, a mortality at 50 ppm [2] of at least 80% and a mortality at 10 ppm [4] of at least 80%. For the same compound, the mortality at 50 ppm [4] was at least 80%.

Work on `O=C(NC1CC1)c1ccc(C2=NOC(c3cc(Cl)cc(Cl)c3)(C(F)(F)F)C2)c2ccncc12` (stereo not shown) [Compound 70, N-cyclopropyl-5-[5-(3,5-dichlorophenyl)-4,5-dihydro-5-(trifluoromethyl)-3-isoxazolyl]-8-isoquinolinecarboxamide] yielded a mortality at 50 ppm [1] of at least 80%, a mortality at 10 ppm [2] of at least 80% and a mortality at 50 ppm [2] of at least 80%. For the same compound, the mortality at 50 ppm [4] was at least 80%.

`O=C(NCC1CC1)c1ccc(C2=NOC(c3cccc(C(F)(F)F)c3)(C(F)(F)F)C2)c2ccncc12` (racemic) [Compound 17, N-(cyclopropylmethyl)-5-[4,5-dihydro-5-(trifluoromethyl)-5-[3-(trifluoromethyl)phenyl]-3-isoxazolyl]-8-isoquinolinecarboxamide] showed a mortality at 10 ppm [1, 6] of at least 80%, a mortality at 50 ppm [1, 5] of at least 80% and a mortality at 10 ppm [2, 6] of at least 80%. It also gave a mortality at 50 ppm [2, 5] of at least 80%.

Work on `O=C(NC1CSC1)c1ccc(C2=NOC(c3cc(Cl)c(F)c(Cl)c3)(C(F)(F)F)C2)c2ccncc12` (stereo not shown) [Compound 43] yielded a mortality at 50 ppm [2] of at least 80% and a mortality at 50 ppm [4] of at least 80%.

With `CS(=O)(=O)CCNC(=O)c1ccc(C2=NOC(c3cc(Cl)c(F)c(Cl)c3)(C(F)(F)F)C2)c2ccncc12` (stereo not shown) [Compound 12] the mortality at 50 ppm [2] was at least 80%.

In the case of `O=C(NCC1CC1)c1ccc(C2=NOC(c3cc(Cl)cc(C(F)(F)F)c3)(C(F)(F)F)C2)c2ccncc12` (stereo not shown) [Compound 36, 5-[5-[3-chloro-5-(trifluoromethyl)phenyl]-4,5-dihydro-5-(trifluoromethyl)-3-isoxazolyl]-N-(cyclopropylmethyl)-8-isoquinolinecarboxamide], the mortality at 10 ppm [1] is reported as at least 80%, the mortality at 50 ppm [1] is reported as at least 80% and the mortality at 10 ppm [2] is reported as at least 80%. For the same compound, the mortality at 50 ppm [2] was at least 80%, the mortality at 10 ppm [3] was at least 50% and the mortality at 50 ppm [3] was at least 50%. The mortality at 10 ppm [4] was at least 80% and the mortality at 50 ppm [4] was at least 80%.

`O=C(NCC1CCCO1)c1ccc(C2=NOC(c3cc(Cl)c(F)c(Cl)c3)(C(F)(F)F)C2)c2ccncc12` (stereo not shown) [Compound 26] was tested, and the mortality at 50 ppm [2] was at least 80% and the mortality at 50 ppm [3] was at least 50%.

`O=C(NC1CC1)c1ccc(C2=NO[C@@](c3cc(Cl)c(F)c(Cl)c3)(C(F)(F)F)C2)c2ccncc12` [Compound 82, S—N-cyclopropyl-5-[5-(3,5-dichloro-4-fluorophenyl)-4,5-dihydro-5-(trifluoromethyl)-3-isoxazolyl]-8-isoquinolinecarboxamide] gave a mortality at 10 ppm [1] of at least 80%, a mortality at 50 ppm [1] of at least 80% and a mortality at 10 ppm [2] of at least 80%. For the same compound, the mortality at 50 ppm [2] was at least 80% and the mortality at 50 ppm [4] was at least 80%.

For `CCNC(=O)c1ccc(C2=NOC(c3cc(Cl)c(F)c(Cl)c3)(C(F)(F)F)C2)c2ccncc12` (stereo not shown) [Compound 46, 5-[5-(3,5-dichloro-4-fluorophenyl)-4,5-dihydro-5-(trifluoromethyl)-3-isoxazolyl]-N-ethyl-8 soquinolinecarboxamide], the mortality at 10 ppm [2] was at least 80% and the mortality at 50 ppm [2] was at least 80%.

In the case of `C[C@H](C[S+](C)[O-])NC(=O)c1ccc(C2=NOC(c3cc(Cl)c(F)c(Cl)c3)(C(F)(F)F)C2)c2ccncc12` (stereo partly shown) [Compound 14], the mortality at 50 ppm [4] is reported as at least 80%.

Work on `O=C(NCC1CC1)c1ccc(C2=NOC(c3cc(Cl)c(F)c(Cl)c3)(C(F)(F)F)C2)c2ccncc12` (stereo not shown) [Compound 3, N-(cyclopropylmethyl)-5-[5-(3,5-dichloro-4-fluorophenyl)-4,5-dihydro-5-(trifluoromethyl)-3-isoxazolyl]-8-isoquinolinecarboxamide] yielded a mortality at 10 ppm [1] of at least 80%, a mortality at 50 ppm [1] of at least 80% and a mortality at 10 ppm [2] of at least 80%. It also gave a mortality at 50 ppm [2] of at least 80%, a mortality at 10 ppm [3] of at least 50% and a mortality at 50 ppm [3] of at least 50%.

For `O=C(NC1CC1)c1ccc(C2=NOC(c3cccc(C(F)(F)F)c3)(C(F)(F)F)C2)c2ccncc12` (stereo not shown) [Compound 16, N-cyclopropyl-5-[4,5-dihydro-5-(trifluoromethyl)-5-[3-(trifluoromethyl)phenyl]-3-isoxazolyl]-8-isoquinolinecarboxamide], the mortality at 50 ppm [1, 5] was at least 80%.

Compound `C[C@@H](NC(=O)c1ccc(C2=NOC(c3cccc(C(F)(F)F)c3)(C(F)(F)F)C2)c2ccncc12)C(N)=O` (stereo partly shown) [Compound 25] has a mortality at 50 ppm [2, 5] of at least 80%.

`CNC(=O)c1ccc(C2=NOC(c3cc(Cl)c(F)c(Cl)c3)(C(F)(F)F)C2)c2ccncc12` (stereo not shown) [Compound 27] was tested, and the mortality at 50 ppm [1] was at least 80% and the mortality at 50 ppm [2] was at least 80%.

For `O=C(NCc1cnccn1)c1ccc(C2=NOC(c3cc(Cl)c(F)c(Cl)c3)(C(F)(F)F)C2)c2ccncc12` (stereo not shown) [Compound 7], the mortality at 50 ppm [1] was at least 80%, the mortality at 50 ppm [2] was at least 80% and the mortality at 50 ppm [3] was at least 50%. The mortality at 50 ppm [4] was at least 80%.

`CSC[C@@H](C)NC(=O)c1ccc(C2=NOC(c3cc(Cl)c(F)c(Cl)c3)(C(F)(F)F)C2)c2ccncc12` (stereo partly shown) [Compound 8] gave a mortality at 50 ppm [2] of at least 80%.

`C[C@@H](NC(=O)c1ccc(C2=NOC(c3cc(Cl)cc(C(F)(F)F)c3)(C(F)(F)F)C2)c2ccncc12)C(N)=O` (stereo partly shown) [Compound 40] gave a mortality at 50 ppm [2] of at least 80%.

With `CC(C)(C)NC(=O)c1ccc(C2=NOC(c3cc(Cl)c(F)c(Cl)c3)(C(F)(F)F)C2)c2ccncc12` (stereo not shown) [Compound 2, 5-[5-(3,5-dichloro-4-fluorophenyl)-4,5-dihydro-5-(trifluoromethyl)-3-isoxazolyl]-N-(1,1-dimethylethyl)-8-isoquinolinecarboxamide] the mortality at 50 ppm [1] was at least 80%, the mortality at 250 ppm [1] was at least 80% and the mortality at 10 ppm [2] was at least 80%. For the same compound, the mortality at 50 ppm [2] was at least 80%, the mortality at 250 ppm [2] was at least 80% and the mortality at 10 ppm [3] was at least 50%. It also gave a mortality at 50 ppm [3] of at least 50%, a mortality at 250 ppm [3] of at least 50% and a mortality at 50 ppm [4] of at least 80%. For the same compound, the mortality at 250 ppm [4] was at least 80%.
